In general, MIC refers to the lowest concentration found to suppress growth.

SMILES strings stand for the structures.

Here are results for twelve compounds from patent publication US7223759B2, “Antibacterial 3,5-diaminopiperidine-substituted aromatic and heteroaromatic compounds” (Anadys Pharmaceuticals, Inc., priority 2003, dated 2007).

The first assay has as its system Escherichia coli (ATCC25922) or Staphylococcus aureus (ATCC25923). Nature of the assay: Antibacterial MIC, microdilution method in Mueller-Hinton medium. Format: cell-based. As to conditions: Escherichia coli, 18 h, MIC in E. coli or S. aureus; two-fold serial dilutions 64 to 0.5 μg/ml in duplicate; 18 hours of incubation at 35° C.; read-out: Potency (MIC). How it is done: The antibacterial activity of the Formula I compounds was evaluated against standard bacterial strains by determining the minimal inhibitory concentration (MIC) to block growth. Each drug was assayed by the microdilution method in Mueller-Hinton medium, as recommended by the National Committee for Clinical Laboratory Standards. Approved Standard M7-A5: Methods for Dilution Antimicrobial Susceptibility Tests for Bacteria That Grow Aerobically 5th Ed. (National Committee for Clinical Laboratory Standards, Wayne, Pa., 2000). The tested bacterial strains included Escherichia coli (American Type Collection ATCC25922), Staphylococcus aureus (ATCC25923), and Pseudomonas aeruginosa (ATCC27853). Two-fold serial dilutions of each compound ranging from 64 to 0.5 μg/ml were tested in duplicate. The MIC was determined as the lowest concentration of each compound that prevented bacterial growth after 18 hours of incubation at 35° C. […] The mass of each compound in the Table was confirmed by LC-MS.
A general note: In broth dilution the organism is exposed to a series of concentrations in liquid medium.
In the case of `Cl.Nc1ccc(S(=O)(=O)Nc2ccc(Nc3nc(N4CCCCC4)nc(N4CCCCC4)n3)cc2O)cc1` [N-[4-(4-amino-benzenesulfonylamino)-3-hydroxy-phenyl]-4,6-Bis-((3R,5S)-33,5-diamino-piperidin-1-yl)-[1,3,5]triazine-2-amine], the MIC is below 64 µg/mL.

`Cc1cccc(NC(=O)c2ccc(Nc3nc(N4CCCCC4)nc(N4CCCCC4)n3)cc2O)n1.Cl` [N-[3-hydroxy-4-(6-methyl-pyridin-2-ylcarbamoyl)-phenyl]-4,6-Bis-((3R,5S)-3,5-diamino-piperidin-1-yl)-[1,3,5]triaazine-2-amine]: the MIC is below 64 µg/mL.

`Cc1ccc(S(=O)(=O)N(Cc2ccccc2)c2ccc(Nc3nc(NC4CCNCC4)nc(N4C[C@H](N)C[C@H](N)C4)n3)cc2O)cc1` [N-Benzyl-N-{4-[4-((3R,5S)-3,5-diamino-piperidin-1-yl)-6-(piperidin-4-ylamino)-[1,3,5]triazin-2-ylamino]-2-hydroxy-phenyl}-4-methyl-benzenesulfonamide]: the MIC is below 64 µg/mL.

`Cc1ccc(S(=O)(=O)N(Cc2ccccc2)c2ccc(Nc3nc(N4CCCCC4)nc(N4CCN(c5ccncc5)CC4)n3)cc2O)cc1.Cl` [N-Benzyl-N-{4-[4-((3R,5SD)-3,5-diamino-piperidin-1-yl)-6-(4-pyridin-4-yl-piperazin-1-yl)-[1,3,5]triazin-2-ylamino]-2-hydroxy-phenyl}-4-methyl-benzenesulfonamide]: the minimum inhibitory concentration (MIC) is below 16 µg/mL.

Take `COC(=O)c1c(N2C[C@H](N)C[C@H](N)C2)nc2ccccc2c1N1C[C@H](N)C[C@H](N)C1.Cl` [2,4-Bis-((3R,5S)-3,5-diamino-piperidin-1-yl)-quinoline-3-carboxylic acidmethylester]: the minimum inhibitory concentration (MIC) was above 64 µg/mL.

The assay is the same for the next values; noted with them: Escherichia coli, 18 h, read-out: Potency (MIC).
Consider `N[C@@H]1C[C@H](N)CN(c2nc(NCc3ccc4c(c3)OCO4)nc(N3C[C@H](N)C[C@H](N)C3)n2)C1` [N-benzo[1,3]dioxol-5-ylmethyl-4,6-Bis-((3R,5S)-3,5-diamino-piperidin-1-yl)-[1,3,5]triazine-2-amine], for which the MIC was above 64 µg/mL.

As for `NC[C@@H]1C[C@H](N)CN1c1nc(Nc2ccc(NC(=O)c3ccc(Cl)cc3)c(O)c2)nc(N2C[C@H](N)C[C@H](N)C2)n1` [N-{4-[4-((2S,4S)-4-Amino-2-aminomethyl-pyrrolidin-1-yl)-6-((3R,5S)-3,5-diamino-piperidin-1-yl)-[1,3,5]triazin-2-ylamino]-2-hydroxy-phenyl}-4-chloro-benzamide], the MIC is below 16 µg/mL.

In the case of `NC(=O)c1ccc(NC(=O)c2ccc(Nc3nc(N4C[C@H](N)C[C@H](N)C4)nc(N4C[C@H](N)C[C@H](N)C4)n3)cc2O)cc1` [N-[4-(4-carbamoyl-phenylcarbamoyl)-3-hydroxy-phenyl]-4,6-Bis-((3R,5S)-3,5-diamino-piperidin-1-yl)-[1,3,5]triazine-2-amine], the MIC is above 64 µg/mL.

In the case of `COc1nc(Nc2ccc(C(C)=O)cc2)nc(N2C[C@H](N)C[C@H](N)C2)n1` [1-{4-[4-((3R,5S)-3,5-Diamino-piperidin-1-yl)-6-methoxy-[1,3,5]triazin-2-ylamino]-phenyl}-ethanone], the minimum inhibitory concentration (MIC) is above 64 µg/mL.

Regarding `N[C@@H]1C[C@H](N)CN(c2nc(Nc3ccc(NC(=O)c4ccc(Cl)cc4)c(O)c3)nc(N3CCNCC3)n2)C1` [4-Chloro-N-{4-[4-((3S,5R)-3,5-diamino-piperidin-1-yl)-6-piperazin-1-yl-[1,3,5]triazin-2-ylamino]-2-hydroxy-phenyl}-benzamide], the MIC is below 16 µg/mL.

Take `N[C@@H]1C[C@H](N)CN(c2nc(Nc3ccc(NC(=O)c4ccc(O)cc4O)c(O)c3)nc(N3C[C@H](N)C[C@H](N)C3)n2)C1` [N-[4-(2,4-dihydroxy-benzoylamino)-3-hydroxy-phenyl]-4,6-Bis-((3R,5S)-3,5-diamino-piperidin-1-yl)-[1,3,5]triazine-2-amine]: the minimal inhibitory concentration (MIC) was below 16 µg/mL.

Take `COc1nc(Nc2ccc3c(c2)C(=O)c2ccccc2-3)nc(N2C[C@H](N)C[C@H](N)C2)n1` [2-[4-((3R,5S)-3,5-Diamino-piperidin-1-yl)-6-methoxy-[1,3,5]triazin-2-ylamino]-fluoren-9-one]: the MIC was above 64 µg/mL.
